Experimental data published in patent US8440646B1 (priority 2006, dated 2013).
Converted amounts (≈) assume the structure as drawn. Where two headings read alike, the source gives them in different places.

What was measured:
B. anthracis V770 = experiment: microbe, parasite or virus in culture; format: cell-based; details: Bacillus anthracis
B. cereus 95/3032 = experiment: microbe, parasite or virus in culture; format: cell-based; details: Bacillus cereus
16S rRNA = details: cited from earlier work
B. anthracis panel = experiment: microbe, parasite or virus in culture; format: cell-based; details: Bacillus anthracis
S. pneumoniae 700905 = experiment: microbe, parasite or virus in culture; format: cell-based; details: Streptococcus pneumoniae
[1] = system: Peptidoglycan synthesis of S. aureus RN450; experiment: microbe, parasite or virus in culture; format: cell-based; details: Staphylococcus aureus
S. aureus RN4250 = experiment: microbe, parasite or virus in culture; format: cell-based
B. anthracis V770NPIR = format: cell-based
[2] = system: Protein synthesis of S. aureus RN450; experiment: microbe, parasite or virus in culture; format: cell-based; details: Staphylococcus aureus
S. pneumoniae PBS1339 = system: S. pneumoniae PBS1339; design: species or system mice; details: mouse, in vivo
B. cereus 97/4144 = experiment: microbe, parasite or virus in culture; format: cell-based; details: Bacillus cereus
protein synthesis = details: cited from earlier work
S. aureus MRSA5 = experiment: microbe, parasite or virus in culture; format: cell-based; details: Staphylococcus aureus
B. anthracis Vollum1B = experiment: microbe, parasite or virus in culture; format: cell-based; details: Bacillus anthracis
B. anthracis Sterne = experiment: microbe, parasite or virus in culture; format: cell-based; details: Bacillus anthracis
S. pneumoniae 157E = experiment: microbe, parasite or virus in culture; format: cell-based; details: Streptococcus pneumoniae
B. cereus 98/2658 = experiment: microbe, parasite or virus in culture; format: cell-based; details: Bacillus cereus
E. faecalis 29212 = experiment: microbe, parasite or virus in culture; format: cell-based; details: Enterococcus faecalis
B. anthracis Ame = experiment: microbe, parasite or virus in culture; format: cell-based; details: Bacillus anthracis
S. aureus RN450 = experiment: microbe, parasite or virus in culture; format: cell-based; details: Staphylococcus aureus
E. faecium 494 = experiment: microbe, parasite or virus in culture; format: cell-based; details: Enterococcus faecium
B. cereus 98/2620 = experiment: microbe, parasite or virus in culture; format: cell-based; details: Bacillus cereus

C[C@H]1c2cccc(O)c2C(=O)C2=C(O)[C@]3(O)C(=O)C(C(N)=O)=C(O)[C@@H](N(C)C)[C@@H]3[C@@H](O)[C@@H]21 [Doxycycline, reference compound]
MIC (B. anthracis V770): 1 mg/L (≈ 2.25 µM) | MIC (B. cereus 95/3032): ≤ 0.06 mg/L | effect on reactivity of nucleotides within the 16S rRNA (chemical footprint) (16S rRNA): affect the reactivity of nucleotides | MIC50 (B. anthracis panel): 0.06 mg/L (≈ 0.135 µM) | MIC90 (B. anthracis panel): 0.25 mg/L (≈ 0.563 µM) | MIC (S. pneumoniae 700905): 4 mg/L (≈ 9 µM) | IC50 ([1]; read-out: Peptidoglycan synthesis IC50): 3.9 mg/L (≈ 8.78 µM) | IC90 ([1]; read-out: Peptidoglycan synthesis IC90): 18.2 mg/L (≈ 41 µM) | susceptibility in words (S. aureus RN4250): resistant | MIC (S. aureus RN4250; Staphylococcus aureus, RN4250): 4 mg/L (≈ 9 µM) | susceptibility in words (B. anthracis V770NPIR): fully doxycycline-resistant | IC50 ([2]; read-out: Protein synthesis IC50): < 0.03 mg/L | IC90 ([2]; read-out: Protein synthesis IC90): < 0.03 mg/L | PD50 (S. pneumoniae PBS1339; iv): 7.1 mg/kg | PD50 (S. pneumoniae PBS1339; po): 35.3 mg/kg | MIC (B. cereus 97/4144): 4 mg/L (≈ 9 µM) | inhibition of protein synthesis in words (protein synthesis): potent inhibitors of protein synthesis | MIC (S. aureus MRSA5): 4 mg/L (≈ 9 µM) | MIC (B. anthracis Vollum1B): 0.06 mg/L (≈ 0.135 µM) | MIC (B. anthracis Sterne): 0.12 mg/L (≈ 0.27 µM) | MIC (S. pneumoniae 157E): 0.06 mg/L (≈ 0.135 µM) | MIC (B. cereus 98/2658): ≤ 0.06 mg/L | MIC (E. faecalis 29212): 4 mg/L (≈ 9 µM) | MIC (B. anthracis Ame): < 0.03 mg/L | MIC (S. aureus RN450): 0.06 mg/L (≈ 0.135 µM) | MIC (E. faecium 494): 16 mg/L (≈ 36 µM) | MIC (B. cereus 98/2620): 4 mg/L (≈ 9 µM)
